Test results taken from patent US9982005B2, “Macrolides and methods of their preparation and use” (President and Fellows of Harvard College, priority 2013, dated 2018).
In brackets after ≈: the same amount, converted by molar mass. Like-named read-outs stand apart in the source and are kept apart here.

How the values were obtained:
Type in all cases: cell-based
[1] = tested on: S. aureus (Newman, clinical isolate); assay: MIC, S. aureus Newman; conditions: Staphylococcus aureus
Description: (§1) We have collected MIC data for a total of 50 novel macrolides that this platform has produced against over 21 unique strains of B. subtilis, E. coli, S. aureus, S. pneumoniae, and H. influenzae, including several multidrug-resistant strains, with a special focus on macrolide resistant mechanisms (vide supra). Azithromycin was included as a control macrolide. CLSI standard procedures for broth dilution MIC determination were used. […] These genotypes can be constitutive or inducible. The finding that C4-epi (unnatural) isomers of the “azaketolide” macrolide class have enhanced activities relative to C4 natural isomers is very exciting.

[2] = tested on: E. coli (MC4100); assay: MIC, E. coli MC4100; conditions: Escherichia coli
Description: as §1

[3] = tested on: E. coli strains; assay: MIC against E. coli strains (Table M7); conditions: Escherichia coli, ATCC25922, E. coli ATCC 25922
Outline: (§2)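 Standard CLSI broth dilution method used for MIC determination. Control: azithromycin.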

[4] = tested on: S. aureus strains; assay: MIC against S. aureus strains (Table M7); conditions: Staphylococcus aureus
Outline: as §2

[5] = tested on: S. pneumoniae strains; assay: MIC against S. pneumoniae strains (Tables M7, M8); conditions: Streptococcus pneumoniae
Description: CLSI standard procedures for broth dilution MIC determination were used. […] These genotypes can be constitutive or inducible.

[6] = tested on: E. faecalis strains; assay: MIC against E. faecalis strains (Table M8); conditions: Enterococcus faecalis, E. faecalis 29212
[7] = tested on: A. baumannii strains; assay: MIC against A. baumannii strains (Table M8); conditions: Acinetobacter baumannii, BAA747, A. baumannii BAA747-1
[8] = tested on: K. pneumoniae strains; assay: MIC against K. pneumoniae strains (Table M8); conditions: Klebsiella pneumoniae, K. pneumoniae 10031
[9] = tested on: H. influenzae strains; assay: MIC against H. influenzae strains (Table M8); conditions: Haemophilus influenzae
Outline: as §2

[10] = S. aureus (Newman, clinical isolate), round 1
[11] = ATCC29213, S. aureus ATCC 29213, read-out: MIC S. aureus (ATCC 29213)
[12] = S. aureus 506, read-out: MIC S. aureus (506)
[13] = S. aureus 1708, read-out: MIC S. aureus (1708)
[14] = USA300, S. aureus USA300, read-out: MIC S. aureus (USA300)
[15] = S. pneumoniae 160, read-out: MIC S. pneumonae (160)
[16] = S. pneumoniae 1509, read-out: MIC S. pneumoniae (1509)
[17] = S. pneumoniae 1533, read-out: MIC S. pneumoniae (1533)
[18] = S. pneumoniae 1537, read-out: MIC S. pneumoniae (1537)
[19] = S. pneumoniae 49619, read-out: MIC S. pneumoniae (49619)
[20] = H. influenzae 49247, read-out: MIC H. influenzae (49247)
[21] = H. influenzae 49766, read-out: MIC H. influenzae (49766)
[22] = S. aureus (Neuman, clinical isolate), round 2

| MIC [1, 10] | MIC ([2]; round 1, read-out: MIC) | MIC [3] | MIC [4, 11] | MIC [4, 12] | MIC [4, 13] | MIC [4, 14] | MIC [5, 15] | MIC [5, 16] | MIC [5, 17] | MIC [5, 18] | MIC [5, 19] | MIC [6] | MIC [7] | MIC [8] | MIC [9, 20] | MIC [9, 21] | MIC [1, 22] | MIC ([2]; round 2, read-out: MIC) | SMILES |
| --- | --- | --- | --- | --- | --- | --- | --- | --- | --- | --- | --- | --- | --- | --- | --- | --- | --- | --- | --- |
| 2 µg/mL (≈ 2.46 µM) | 8 µg/mL (≈ 9.83 µM) | 8 µg/mL (≈ 9.83 µM) | 4 µg/mL (≈ 4.91 µM) | > 32 µg/mL | 4 µg/mL (≈ 4.91 µM) | 4 µg/mL (≈ 4.91 µM) | 0.125 µg/mL (≈ 0.154 µM) | 32 µg/mL (≈ 39.3 µM) | > 32 µg/mL | > 32 µg/mL | 0.25 µg/mL (≈ 0.307 µM) | 0.25 µg/mL (≈ 0.307 µM) | 8 µg/mL (≈ 9.83 µM) | 2 µg/mL (≈ 2.46 µM) | 0.5 µg/mL (≈ 0.614 µM) | 4 µg/mL (≈ 4.91 µM) | – | – | CC[C@H]1OC(=O)[C@H](C)C(=O)[C@H](C)[C@@H](O[C@@H]2OC(C)CC(N(C)C)C2O)[C@](C)(OC)C[C@@H](C)CN[C@H](C)[C@H]2N(CCCn3cc(-c4cccc(N)c4)nn3)C(=O)O[C@]12C (some centres unmarked) [FSM-40347] |
| 2 µg/mL (≈ 2.38 µM) | 16 µg/mL (≈ 19 µM) | 8 µg/mL (≈ 9.5 µM) | 1 µg/mL (≈ 1.19 µM) | > 32 µg/mL | 1 µg/mL (≈ 1.19 µM) | 2 µg/mL (≈ 2.38 µM) | 0.125 µg/mL (≈ 0.148 µM) | 2 µg/mL (≈ 2.38 µM) | > 32 µg/mL | > 32 µg/mL | ≤ 0.0625 µg/mL | 0.125 µg/mL (≈ 0.148 µM) | 32 µg/mL (≈ 38 µM) | 2 µg/mL (≈ 2.38 µM) | 0.5 µg/mL (≈ 0.594 µM) | 2 µg/mL (≈ 2.38 µM) | – | – | CC[C@H]1OC(=O)[C@H](C)C(=O)[C@H](C)[C@@H](O[C@@H]2OC(C)CC(N(C)C)C2O)[C@](C)(OC)C[C@@H](C)CN[C@H](C)[C@H]2N(CCCCCn3cc(-c4cccc(N)c4)nn3)C(=O)O[C@]12C (some centres unmarked) [FSM-40349] |
| – | – | 8 µg/mL (≈ 9.83 µM) | 4 µg/mL (≈ 4.91 µM) | > 32 µg/mL | 4 µg/mL (≈ 4.91 µM) | 8 µg/mL (≈ 9.83 µM) | 0.5 µg/mL (≈ 0.614 µM) | > 32 µg/mL | > 32 µg/mL | > 32 µg/mL | 1 µg/mL (≈ 1.23 µM) | 0.5 µg/mL (≈ 0.614 µM) | 32 µg/mL (≈ 39.3 µM) | 2 µg/mL (≈ 2.46 µM) | 1 µg/mL (≈ 1.23 µM) | 4 µg/mL (≈ 4.91 µM) | 4 µg/mL (≈ 4.91 µM) | 8 µg/mL (≈ 9.83 µM) | CC[C@H]1OC(=O)CC(=O)[C@H](C)[C@@H](O[C@@H]2OC(C)CC(N(C)C)C2O)[C@](C)(OC)C[C@@H](C)CN[C@H](C)[C@H]2N(CCCCn3cc(-c4cccc(N)c4)nn3)C(=O)O[C@]12C (some centres unmarked) [FSM-56133] |
| – | – | 16 µg/mL (≈ 18.7 µM) | 4 µg/mL (≈ 4.68 µM) | > 32 µg/mL | 4 µg/mL (≈ 4.68 µM) | 8 µg/mL (≈ 9.37 µM) | 0.25 µg/mL (≈ 0.293 µM) | 8 µg/mL (≈ 9.37 µM) | > 32 µg/mL | > 32 µg/mL | 1 µg/mL (≈ 1.17 µM) | 1 µg/mL (≈ 1.17 µM) | 32 µg/mL (≈ 37.5 µM) | 4 µg/mL (≈ 4.68 µM) | 2 µg/mL (≈ 2.34 µM) | 8 µg/mL (≈ 9.37 µM) | 2 µg/mL (≈ 2.34 µM) | 4 µg/mL (≈ 4.68 µM) | C=CC[C@H]1C(=O)O[C@H](CC)[C@@]2(C)OC(=O)N(CCCCn3cc(-c4cccc(N)c4)nn3)[C@@H]2[C@@H](C)NC[C@H](C)C[C@@](C)(OC)[C@H](O[C@@H]2OC(C)CC(N(C)C)C2O)[C@@H](C)C1=O (some centres unmarked) [FSM-56156] |
